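Values below derive from 48-hour exposures of cells grown in 96-well plates, with endpoints linearly interpolated between the two concentrations bracketing the appropriate inhibition level. Definition used: TGI = concentration required for complete inhibition of growth.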
Legend:
Assay in all cases: NCI tumour cell line growth inhibition, 48 h
[1] = test system: MDA-N
[2] = test system: RPMI-8226 leukemia
[3] = test system: SK-OV-3 ovarian
[4] = test system: HCT-15 colon
[5] = test system: 786-0 renal
[6] = test system: UACC-62 melanoma
[7] = test system: NCI-H522 lung
[8] = test system: SF-539 CNS
[9] = test system: SNB-19 CNS
[10] = test system: OVCAR-5 ovarian
[11] = test system: A498 renal
[12] = test system: SF-295 CNS
[13] = test system: MCF7 breast
[14] = test system: OVCAR-4 ovarian
[15] = test system: K-562 leukemia
[16] = test system: MDA-MB-435
[17] = test system: SK-MEL-2 melanoma
[18] = test system: HL-60(TB) leukemia
[19] = test system: CCRF-CEM leukemia
[20] = test system: M14 melanoma
[21] = test system: OVCAR-3 ovarian
[22] = test system: SK-MEL-5 melanoma
[23] = test system: SW-620 colon
[24] = test system: HCT-116 colon
[25] = test system: UACC-257 melanoma
[26] = test system: MOLT-4 leukemia
[27] = test system: T-47D breast
[28] = test system: BT-549 breast
[29] = test system: NCI-H226 lung
[30] = test system: DU-145 prostate
[31] = test system: KM12 colon
[32] = test system: A549 NSCLC
[33] = test system: EKVX NSCLC
[34] = test system: CAKI-1 renal
[35] = test system: MDA-MB-231 breast
[36] = test system: MALME-3M melanoma
[37] = test system: HS 578T breast
[38] = test system: PC-3 prostate
[39] = test system: TK-10 renal
[40] = test system: HCC-2998 colon
[41] = test system: HOP-92 NSCLC
[42] = test system: RXF 393 renal
[43] = test system: SR leukemia
[44] = test system: U251 CNS
[45] = test system: IGROV1 ovarian
[46] = test system: HOP-62 NSCLC
[47] = test system: SF-268 CNS
[48] = test system: ACHN renal
[49] = test system: NCI/ADR-RES ovarian
[50] = test system: NCI-H23 lung
[51] = test system: UO-31 renal
[52] = test system: SNB-75 CNS
[53] = test system: OVCAR-8 ovarian
[54] = test system: LOX IMVI melanoma
[55] = test system: NCI-H460 lung
[56] = test system: SN12C renal
[57] = test system: SK-MEL-28 melanoma
[58] = test system: COLO 205 colon

For `COc1ccc(C2Oc3ccc(Cl)cc3C=C2[N+](=O)[O-])cc1OC` (stereo not drawn), the TGI [1] was 1.11 µM, the TGI [2] was 0.608 µM and the TGI [3] was 6.11 µM. For the same compound, the TGI [4] was 3.09 µM, the TGI [5] was 0.871 µM and the TGI [6] was 3.65 µM. It also gave a TGI [7] of 2.66 µM, a TGI [8] of 3.13 µM and a TGI [9] of 5.02 µM. For the same compound, the TGI [10] was 3.14 µM, the TGI [11] was 7.36 µM and the TGI [12] was 3.46 µM. For the same compound, the TGI [13] was 3.39 µM, the TGI [14] was 3.46 µM and the TGI [15] was 1.08 µM. For the same compound, the TGI [16] was 1.21 µM, the TGI [17] was 3.05 µM and the TGI [18] was 0.47 µM. The TGI [19] was 0.372 µM, the TGI [20] was 1.63 µM and the TGI [21] was 2.06 µM. For the same compound, the TGI [22] was 2.96 µM, the TGI [23] was 0.497 µM and the TGI [24] was 1.62 µM. For the same compound, the TGI [25] was 4.07 µM, the TGI [26] was 0.733 µM and the TGI [27] was 4.35 µM. For the same compound, the TGI [28] was 2.62 µM, the TGI [29] was 4.24 µM and the TGI [30] was 2.97 µM. For the same compound, the TGI [31] was 2.86 µM, the TGI [32] was 5.04 µM and the TGI [33] was 7.13 µM. The TGI [34] was 3.93 µM, the TGI [35] was 2.59 µM and the TGI [36] was 4.28 µM. The TGI [37] was 15.5 µM, the TGI [38] was 2.95 µM and the TGI [39] was 2.87 µM. It also gave a TGI [40] of 3.33 µM, a TGI [41] of 4.33 µM and a TGI [42] of 3.04 µM. For the same compound, the TGI [43] was 0.307 µM, the TGI [44] was 2.35 µM and the TGI [45] was 3.35 µM. The TGI [46] was 3.12 µM, the TGI [47] was 5 µM and the TGI [48] was 2.77 µM. For the same compound, the TGI [49] was 2.12 µM, the TGI [50] was 4.35 µM and the TGI [51] was 3.47 µM. For the same compound, the TGI [52] was 2.45 µM, the TGI [53] was 2.64 µM and the TGI [54] was 1.43 µM. For the same compound, the TGI [55] was 5.95 µM, the TGI [56] was 2.82 µM and the TGI [57] was 3.58 µM. For the same compound, the TGI [58] was 4.41 µM.

Source: PubChem BioAssay (NCI)
